Among the data in ChEMBL document CHEMBL1127936, “Mercaptoacyl dipeptides as dual inhibitors of angiotensin-converting enzyme and neutral endopeptidase. Preliminary structure-activity studies” (Bioorg Med Chem Lett, 1994) are IC50 and ED50 values, retold here.

Some results are limits rather than exact numbers.

In assay [1] the target is T1, Angiotensin-converting enzyme (Oryctolagus cuniculus, UniProt P12822).
T1 sequence (P12822 whole entry): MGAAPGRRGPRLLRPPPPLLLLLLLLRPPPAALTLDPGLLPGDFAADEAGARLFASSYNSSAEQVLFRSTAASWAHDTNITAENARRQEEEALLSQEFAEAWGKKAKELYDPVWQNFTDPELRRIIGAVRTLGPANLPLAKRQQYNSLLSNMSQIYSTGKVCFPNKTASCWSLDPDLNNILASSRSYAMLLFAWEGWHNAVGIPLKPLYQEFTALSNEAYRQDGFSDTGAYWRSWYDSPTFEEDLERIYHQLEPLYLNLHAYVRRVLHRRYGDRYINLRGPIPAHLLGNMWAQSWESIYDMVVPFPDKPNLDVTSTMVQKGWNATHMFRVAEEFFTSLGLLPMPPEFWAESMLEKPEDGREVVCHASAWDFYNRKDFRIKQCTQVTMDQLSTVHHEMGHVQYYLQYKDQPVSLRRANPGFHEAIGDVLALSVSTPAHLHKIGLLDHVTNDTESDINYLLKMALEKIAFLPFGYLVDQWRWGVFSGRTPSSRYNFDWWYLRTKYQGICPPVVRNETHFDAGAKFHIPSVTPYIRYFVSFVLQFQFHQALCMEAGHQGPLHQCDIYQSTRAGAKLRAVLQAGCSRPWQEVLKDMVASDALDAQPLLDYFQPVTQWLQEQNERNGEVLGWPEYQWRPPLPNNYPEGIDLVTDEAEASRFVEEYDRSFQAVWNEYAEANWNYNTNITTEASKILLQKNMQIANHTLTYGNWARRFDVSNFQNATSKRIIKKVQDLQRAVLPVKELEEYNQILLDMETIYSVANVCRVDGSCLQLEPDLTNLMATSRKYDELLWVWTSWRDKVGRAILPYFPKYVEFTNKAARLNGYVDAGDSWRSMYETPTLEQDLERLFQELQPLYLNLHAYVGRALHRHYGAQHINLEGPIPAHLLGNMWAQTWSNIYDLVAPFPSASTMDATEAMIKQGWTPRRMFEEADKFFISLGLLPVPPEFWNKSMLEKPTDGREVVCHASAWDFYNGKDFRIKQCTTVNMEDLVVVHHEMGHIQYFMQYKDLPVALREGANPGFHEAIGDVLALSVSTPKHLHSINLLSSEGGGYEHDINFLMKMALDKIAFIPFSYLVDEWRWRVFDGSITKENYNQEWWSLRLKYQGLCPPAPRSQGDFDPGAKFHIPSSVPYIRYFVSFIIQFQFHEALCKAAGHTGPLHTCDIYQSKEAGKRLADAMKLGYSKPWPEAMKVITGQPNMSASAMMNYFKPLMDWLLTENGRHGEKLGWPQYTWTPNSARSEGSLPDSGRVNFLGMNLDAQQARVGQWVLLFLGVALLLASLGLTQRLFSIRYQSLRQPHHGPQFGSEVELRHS
As to the kind of experiment: In vitro inhibition of rabbit lung Angiotensin I converting enzyme (ACE) using Hippuryl-His-Leu as substrate.

Assay [2] has as its system Rattus norvegicus. The experiment in a line: In vivo inhibition of angiotensin I-induced pressor response after iv administration in normotensive rats. The format is functional.
The target in another assay is T2, Neprilysin (Rattus norvegicus, UniProt P07861).
T2 sequence (P07861 whole entry): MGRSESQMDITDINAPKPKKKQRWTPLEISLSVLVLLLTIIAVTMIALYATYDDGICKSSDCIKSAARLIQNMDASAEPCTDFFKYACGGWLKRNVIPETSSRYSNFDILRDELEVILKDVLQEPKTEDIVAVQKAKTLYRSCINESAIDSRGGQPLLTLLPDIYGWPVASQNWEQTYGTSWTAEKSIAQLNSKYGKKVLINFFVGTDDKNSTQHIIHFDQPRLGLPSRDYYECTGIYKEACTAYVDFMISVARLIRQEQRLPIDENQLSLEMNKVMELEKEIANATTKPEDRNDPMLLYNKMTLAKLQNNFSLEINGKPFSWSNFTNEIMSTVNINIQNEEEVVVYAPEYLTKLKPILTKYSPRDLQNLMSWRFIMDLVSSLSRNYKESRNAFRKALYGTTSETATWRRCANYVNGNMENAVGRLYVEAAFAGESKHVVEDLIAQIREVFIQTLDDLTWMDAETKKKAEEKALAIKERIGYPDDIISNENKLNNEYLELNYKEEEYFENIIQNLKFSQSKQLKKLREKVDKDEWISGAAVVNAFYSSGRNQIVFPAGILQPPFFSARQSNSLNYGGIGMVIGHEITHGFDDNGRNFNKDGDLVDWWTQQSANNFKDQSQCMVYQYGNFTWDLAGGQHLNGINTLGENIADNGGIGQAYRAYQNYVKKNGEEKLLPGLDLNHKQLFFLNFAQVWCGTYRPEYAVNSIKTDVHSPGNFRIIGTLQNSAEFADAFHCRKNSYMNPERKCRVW
The experiment in a line: In vitro inhibition of rat kidney neutral endopeptidase (NEP) by fluorometric assay using Dansyl-Gly-Phe-Arg as substrate.

The test system of assay [3] is Rattus norvegicus. As to the kind of experiment: In vivo inhibition of angiotensin- 1 induced pressor response after iv administration in normotensive rats. The format is functional.

As usually defined, the IC50 is the midpoint of a concentration-inhibition curve. High values mean weaker potency in that assay, low ones greater potency in that assay. Broadly, the ED50 is the dose at which the effect has come halfway, by size or by number of responders. Higher therefore signals weaker potency. Consider `Cc1ccccc1C[C@H](CS)C(=O)N[C@@H](C)C(=O)N1CCC[C@@H]1C(=O)O`, for which the IC50 amounted to 69 nM in assay [1] and 6.2 nM on Neprilysin. The 50% effect level in the assay with Rattus norvegicus [2] (ED50) was put at a dose of 4.2 µmol/kg.
For `C[C@H](NC(=O)[C@H](CS)Cc1ccccc1)C(=O)N1CCC[C@H]1C(=O)O`, the IC50 in assay [1] was 210 nM; against Neprilysin, 45 nM. Further, it took a dose of 8.1 µmol/kg to reach the 50% effect level in the assay on Rattus norvegicus [2] (ED50).
For the compound `C[C@H](NC(=O)[C@H](Cc1ccccc1)[C@H](C)S)C(=O)N1CCC[C@H]1C(=O)O`, the IC50 in assay [1] was found to be 452 nM; at Neprilysin, 32 nM.
Consider `C[C@H](NC(=O)[C@@H](S)Cc1ccccc1)C(=O)N1CCC[C@H]1C(=O)O`, for which the IC50 in assay [1] was 30 nM; against Neprilysin, 400 nM. The compound also had a 50% effective dose (ED50) in the assay on Rattus norvegicus [2] of 0.06 µmol/kg.
For `CCC[C@H](NC(=O)[C@@H](CS)Cc1ccccc1)C(=O)N1CCC[C@H]1C(=O)O`, the IC50 in assay [1] was determined as 10 nM; against Neprilysin, 2 nM. Also, the median effective dose (ED50) in the assay on Rattus norvegicus [2] is 2.2 µmol/kg.
The corresponding values for `C[C@H](NC(=O)[C@@H](CS)Cc1ccccc1)C(=O)N1Cc2ccccc2C[C@H]1C(=O)O` are 14 nM, 3.9 nM and 0.57 µmol/kg.
On to `C[C@H](NC(=O)[C@@H](CS)Cc1ccccc1)C(=O)N1CCC[C@H]1C(=O)O`, for which the results for the IC50 (in assay [1]; against Neprilysin) were 4 nM and 6.6 nM, respectively. The compound further gave an ED50 in the assay on Rattus norvegicus [2] of 0.5 µmol/kg.
`CC(C)CC(CS)C(=O)N[C@@H](C)C(=O)N1CCC[C@@H]1C(=O)O` (stereo not given in full): the figures for the IC50 (in assay [1]; on Neprilysin) were 490 nM and 10 nM, respectively.
As to `C[C@H](NC(=O)[C@@H](CS)Cc1ccccc1)C(=O)N1c2ccccc2C[C@H]1C(=O)O`, the IC50 in assay [1] is 7.8 nM; on Neprilysin it was 2.6 nM. The ED50 in the assay on Rattus norvegicus [2] was determined as 0.15 µmol/kg.
The corresponding values for `C[C@H](NC(=O)[C@H](Cc1ccccc1)[C@@H](C)S)C(=O)N1CCC[C@H]1C(=O)O` are 78 nM, 182 nM and > 5 µmol/kg.
Consider `C[C@H](CS)C(=O)N[C@@H](C)C(=O)N1CCC[C@@H]1C(=O)O`, for which the IC50 in assay [1] came out at 1800 nM; on Neprilysin, 140 nM.
The corresponding values for `O=C(O)CCNC(=O)[C@@H](CS)Cc1ccccc1` are 32000 nM and 9.4 nM.
With `CC(C)C[C@H](NC(=O)[C@@H](S)Cc1ccccc1)C(=O)O`, the IC50 in assay [1] amounted to 1600 nM.
For `C[C@H](NC(=O)C(CS)CCc1ccccc1)C(=O)N1CCC[C@@H]1C(=O)O` (stereo not given in full), the concentration for half-maximal inhibition (IC50) in assay [1] came to 290 nM; at Neprilysin, 160 nM.
As for `CC(C)C[C@H](NC(=O)[C@@H](CS)Cc1ccccc1)C(=O)O`, inhibition in assay [1] was half-maximal at 37 nM (IC50).
For `C[C@H](NC(=O)[C@@H](CS)Cc1ccccc1Cl)C(=O)N1CCC[C@@H]1C(=O)O`, the concentration for half-maximal inhibition (IC50) in assay [1] came out at 25 nM; at Neprilysin it was 2.2 nM. The same compound showed a 50% effective dose (ED50) in the assay on Rattus norvegicus [2] of 2.6 µmol/kg.
For the compound `C[C@H](NC(=O)[C@@H](CS)Cc1ccccc1)C(=O)N1C[C@H](C2CCCCC2)C[C@H]1C(=O)O`, the half-inhibitory concentration (IC50) in assay [1] was determined as 18 nM; at Neprilysin, 6.6 nM. The 50% effect level in the assay with Rattus norvegicus [2] (ED50) was put at a dose of 2.5 µmol/kg.
`O=C(N[C@@H](Cc1c[nH]c2ccccc12)C(=O)N1CCC[C@H]1C(=O)O)[C@@H](CS)Cc1ccccc1`: the IC50 worked out at 10 nM in assay [1] and 25 nM at Neprilysin. In the assay on Rattus norvegicus [2], this compound showed an ED50 of 6.4 µmol/kg.
The corresponding values for `C[C@H](NC(=O)[C@@H](CS)Cc1ccccc1)C(=O)N1C[C@@H](Sc2ccccc2)C[C@H]1C(=O)O` are 8.7 nM, 1.6 nM and 0.78 µmol/kg.
Regarding `C[C@H](NC(=O)[C@@H](CS)Cc1ccc(OCc2ccccc2)cc1)C(=O)N1CCC[C@@H]1C(=O)O`, the IC50 in assay [1] was 880 nM; against Neprilysin, 40 nM.
`C[C@H](NC(=O)[C@H](S)Cc1ccccc1)C(=O)N1CCC[C@H]1C(=O)O`: the concentration for half-maximal inhibition (IC50) is 80 nM in assay [1] and 285 nM against Neprilysin. The ED50 in the assay with Rattus norvegicus [2] came out at 0.03 µmol/kg.
In assay [1], `C[C@H](NC(=O)[C@@H](CS)Cc1ccccc1)C(=O)O` registered an IC50 of 120 nM. The same compound came in with an ED50 with Rattus norvegicus [3] of 15 µmol/kg.
